Results taken from paper PMC7567930 (Heliyon, 2020).
Entries after “also recorded” stand apart in the source; their conditions may differ. Where two headings read alike, the source gives them in different places.

Target: Jack bean urease (Canavalia ensiformis, UniProt P07374)
Assay: Jack bean urease inhibition
Type: biochemical
[1] = read-out: IC50 ± SEM, Table 2, derivatives 6a-6f, triplicate
[2] = IC50 ± SEM, Table 1, derivatives 3a-3f, triplicate
[3] = urease inhibition IC50, values in the abstract

Chain of Jack bean urease (P07374 whole entry, looked up): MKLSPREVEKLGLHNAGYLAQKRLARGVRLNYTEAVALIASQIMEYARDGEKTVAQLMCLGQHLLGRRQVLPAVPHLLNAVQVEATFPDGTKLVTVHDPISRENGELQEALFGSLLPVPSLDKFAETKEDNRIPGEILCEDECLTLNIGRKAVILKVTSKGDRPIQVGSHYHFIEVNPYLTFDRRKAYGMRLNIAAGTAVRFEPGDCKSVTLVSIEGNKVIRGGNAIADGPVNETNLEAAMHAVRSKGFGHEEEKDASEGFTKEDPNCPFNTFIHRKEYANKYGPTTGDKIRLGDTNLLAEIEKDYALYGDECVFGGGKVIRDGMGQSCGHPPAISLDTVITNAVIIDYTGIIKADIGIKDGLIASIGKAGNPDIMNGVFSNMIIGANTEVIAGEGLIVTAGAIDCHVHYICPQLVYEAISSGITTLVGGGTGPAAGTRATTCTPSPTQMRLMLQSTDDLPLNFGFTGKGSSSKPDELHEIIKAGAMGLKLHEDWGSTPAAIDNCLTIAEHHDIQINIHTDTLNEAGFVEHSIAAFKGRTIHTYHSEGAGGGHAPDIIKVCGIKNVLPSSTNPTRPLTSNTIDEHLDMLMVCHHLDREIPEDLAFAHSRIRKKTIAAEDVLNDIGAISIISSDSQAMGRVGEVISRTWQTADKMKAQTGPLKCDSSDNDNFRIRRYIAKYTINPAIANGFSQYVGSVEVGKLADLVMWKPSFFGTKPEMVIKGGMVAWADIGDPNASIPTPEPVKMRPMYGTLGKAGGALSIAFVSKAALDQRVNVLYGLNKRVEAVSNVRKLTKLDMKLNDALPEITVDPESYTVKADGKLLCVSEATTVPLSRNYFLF

Row | IC50 [1] [µM] | SMILES | urease inhibition, result in words | other results
1 | 38 ± 1.3 | COc1ccc2cc(C(C)n3cnc4ccccc43)ccc2c1 (racemic) [6a] | – | –
2 | 36 ± 1.7 | COc1ccc2cc(C(C)c3nc4ccc(Cl)cc4[nH]3)ccc2c1 (racemic) [6b, (±)-6-chloro-2-((R)-1-(2-methoxynaphthalen-6-yl)ethyl)-1H-benzo[d]imidazol] | – | –
3 | 51 ± 9.3 | COc1ccc2cc(C(C)c3nc4ccc(Br)cc4[nH]3)ccc2c1 (racemic) [6c, (±)-6-bromo-2-((R)-1-(2-methoxynaphthalen-6-yl)ethyl)-1H-benzo[d]imidazol] | – | –
4 | 44 ± 2.4 | COc1ccc2cc(C(C)c3nc4ccc(C)cc4[nH]3)ccc2c1 (racemic) [6e, (±)-6-methyl-2-((R)-1-(2-methoxynaphthalen-6-yl)ethyl)-1H-benzo[d] imidazol] | – | –
5 | 39 ± 2.4 | COc1ccc2cc(C(C)n3cnc4ccccc43)ccc2c1 (racemic) [6f] | – | –
6 | 99 ± 9.4 | COc1ccc2cc(C(C)c3nc4ccc([N+](=O)[O-])cc4[nH]3)ccc2c1 (racemic) [compound 6d, (±)-6-Nitro-2-((R)-1-(2-methoxynaphthalen-6-yl)ethyl)-1H-benzo[d]imidazol] | not showing significant urease inhibition | –

The next lines start with the molecule.

Row | SMILES | IC50 [1] [µM] | urease inhibition, result in words | other results
7 | CC(O)c1nc2ccccc2[nH]1 (single isomer, unassigned) [compound 3a, (R or S)-1-(1H-benzo[d]imidazol-2-yl)ethanol] | – | significant urease inhibition; also recorded: good enzyme inhibitory activity; also recorded: most potent | IC50 [2]: 22 ± 6.2 µM; IC50 [3]: 22.3 ± 6.2 µM
8 | CC(O)c1nc2ccccc2[nH]1 (single isomer, unassigned) [compound 3f, (R or S)-1-(1H-benzo[d]imidazol-2-yl)ethanol] | – | significant urease inhibition; also recorded: good enzyme inhibitory activity; also recorded: most potent | IC50 [2]: 31 ± 23.3 µM; IC50 [3]: 31.4 ± 23.3 µM
9 | NC(N)=S [thiourea, reference compound] | – | – | IC50 (read-out: IC50 of reference thiourea, standard inhibitor): 20.9 µM
